# Results reported in PMC9607266, “Drug–Drug Interaction Study to Evaluate the Pharmacokinetics, Safety, and Tolerability of Ipatasertib in Combination with Darolutamide in Patients with Advanced Prostate Cancer” (Pharmaceutics, 2022).
# Where two headings read alike, the source gives them in different places.
# Experiments:
# [1] = Phase Ib DDI study: safety and tolerability (adverse events, ECG); type: in vivo, human
# From the text: (§1) Figure 1 presents an overview of the study design.
# The primary objectives of the study were to characterize the effect of darolutamide on the PK of ipatasertib and its M1 (G-037720) metabolite when administered alone versus in combination with darolutamide and to evaluate the safety and tolerability of the ipatasertib–darolutamide combination. The PK endpoints of the study were to evaluate the plasma PK parameters of ipatasertib and its M1 metabolite and evaluate the PK of darolutamide and its metabolite keto-darolutamide at a steady state of the combination treatment and compare this to historical data. Medications known to impact the PK of ipatasertib or darolutamide (both CY3PA4 substrates) were refrained from being administered during the study conducted and accordingly not co-administered. The safety endpoints of the study were to evaluate the incidences, nature, and severity of AEs and laboratory abnormalities, changes in vital signs, exposure to the study treatment, and to evaluate the changes in ECG parameters with particular focus on the QT interval corrected through the use of Fridericia’s formula (QTcF). The study achieved the first patient first visit on 21 December 2020, and the cut-off date for primary PK and safety analysis presented within this manuscript was 31 August 2021.
# The safety and tolerability assessments consisted of monitoring and recording AEs, including SAEs and AEs of special interest, clinical laboratory assessments, vital signs, a 12 lead ECG, and physical examination. The AEs were recorded from the first admission until the discontinuation of visits. The AE severity was graded from Grade 1 to Grade 5 as per the National Cancer Institute Common Terminology Criteria for Adverse Events version 5.0. The relationship between the AEs and the study drug was indicated as related or not related. The AE terms reported were coded using the standard Medical Dictionary for Regulatory Activities version 24.0’s preferred terms. In order to manage any drug-related toxicities, ipatasertib and darolutamide modifications were specified as follows: An ipatasertib dose could be reduced in decrements of 100 mg up to 200 mg (can be reduced to two dose levels) beyond which the patient must discontinue ipatasertib but may continue treatment with darolutamide. In the case of darolutamide, the dose could be reduced from 600 mg BID to 300 mg BID until symptoms improve. Treatment may then be resumed at a dose of 600 mg, twice daily. A dose reduction below 300 mg BID for darolutamide was not recommended.
# [2] = cited from earlier work
# [3] = system: CYP3A4; parameters: method as in PMID 35428895; settings: PBPK simulations, ipatasertib 400 mg QD; cited from earlier work
# [4] = parameters: method as in PMID 27872130; settings: cited from earlier work
# [5] = system: CYP3A4; settings: cited from earlier work
# [6] = system: CYP3A4; settings: in vitro studies; cited from earlier work
# [7] = Phase Ib DDI study: plasma PK of ipatasertib and M1 after ipatasertib 400 mg QD alone and with darolutamide 600 mg BID; type: in vivo; settings: male, human, oral
# Method: as §1
# Stable labeled internal standards were used for both analytes.
# Only median, min, and max were evaluated for Tmax.
# Pharmacokinetic parameters (area under the curve (AUC0–tau) and Cmax,ss) were compared between Day 10 of Cycle 1 (ipatasertib alone, as the reference treatment) and Day 28 of Cycle 1 (combination of ipatasertib and darolutamide, as the test treatment) using SAS Version 9.4 by calculating geometric mean ratios and corresponding 90% confidence intervals (CIs) to evaluate the effect of darolutamide on the PK of ipatasertib and M1. A linear mixed model with a fixed effect for treatment and a random effect for patients was used on the natural log-transformed pharmacokinetic parameters. Point estimates for the means and point estimates and corresponding 90% confidence intervals (CIs) for the differences in means between the two treatments (reference and test treatments) were obtained from the linear mixed effects model and then exponentiated to obtain geometric means, geometric mean ratios, and respective 90% CIs on the original scale.
# [8] = cited from earlier work; remark: listed apart in the source
# [9] = Phase Ib DDI study: plasma PK of darolutamide and keto-darolutamide at steady state in combination with ipatasertib; settings: human
# Method: This was an open-label, multicenter, Phase Ib study designed to assess the safety, tolerability, and the drug–drug interaction of the combined administration of 400 mg QD oral ipatasertib and 600 mg BID oral darolutamide. […] For this study, no prospective calculations of the statistical power were made; the sample size selected was based on a typical sample size used for DDI studies. […] Figure 1 presents an overview of the study design.
# Plasma concentrations of ipatasertib and its metabolite M1 were determined using a previously reported, validated liquid chromatography–tandem mass spectrometry assay (LC-MS/MS). The lower and upper limit of the quantitation for ipatasertib and M1 was 0.500 ng/mL and 400 ng/mL, respectively. Stable labeled internal standards were used for both analytes. Plasma concentrations of darolutamide and keto-darolutamide were determined by a validated bioanalytical assay using supported liquid extraction and LC-MS/MS detection by Labcorp Early Drug Development Laboratories Inc. (Madison, WI, USA). […] The diastereomers of darolutamide, (S, R)-darolutamide, and (S, S)-darolutamide, were quantified as one entity from a single chromatographic peak. The MS/MS transitions monitored for detection were m/z 399.2 to 178.1 for darolutamide, m/z 397.1 to 136.0 for keto-darolutamide, and 478.2 to 221.0 for the internal standard apalutamide. […]
# [10] = cited from earlier work; remark: listed apart in the source
# [11] = compared with enzalutamide and apalutamide; cited from earlier work
# [12] = itraconazole, strong CYP3A4 and P-gp inhibitor, 100 mg ipatasertib
# [13] = single-agent darolutamide from the literature, geometric mean (%CV)
structure (smiles),measurement,setting,value
CC(C)NC[C@@H](C(=O)N1CCN(c2ncnc3c2[C@H](C)C[C@H]3O)CC1)c1ccc(Cl)cc1 [Ipatasertib],Total number of deaths,[1]; N = 14,0
same,patients with at least one AE leading to discontinuation of darolutamide,"[1]; male, human, in vivo",0 n (%)
same,patients with at least one AE leading to discontinuation of ipatasertib,"[1]; male, human, in vivo",0 n (%)
same,patients with at least one AE leading to dose interruption of darolutamide,"[1]; male, human, in vivo",0 n (%)
same,patients with at least one AE leading to dose interruption of ipatasertib,"[1]; male, human, in vivo",0 n (%)
same,patients with at least one AE leading to dose reduction of darolutamide,"[1]; male, human, in vivo",0 n (%)
same,patients with at least one AE leading to dose reduction of ipatasertib,"[1]; male, human, in vivo",0 n (%)
same,patients with at least one AE related to any treatment,"[1]; male, human, in vivo",1 (7.1) n (%)
same,patients with at least one AE related to darolutamide only,"[1]; male, human, in vivo",0 n (%)
same,patients with at least one AE related to ipatasertib only,"[1]; male, human, in vivo",1 (7.1) n (%)
same,patients with at least one Grade 5 AE,"[1]; male, human, in vivo",0 n (%)
same,patients with at least one Grade ≥ 3 AE,"[1]; male, human, in vivo",0 n (%)
same,patients with at least one Serious AE,"[1]; male, human, in vivo",0 n (%)
same,patients with at least one: Any treatment discontinuation,"[1]; male, human, in vivo",0 n (%)
same,patients with diarrhea of Grade 1,"[1]; male, human, in vivo",7.1%
same,time to steady-state,[2]; 400 mg QD dose,≤ 7 days
same,median time to maximum concentration (Tmax),[2]; across 25–800 mg doses in patients with cancer,0.5 to 3 h
same,exposures following a high-fat meal versus fasted conditions,[2],comparable
same,median half-life (t1/2),"[2]; oral doses in the range of 200–800 mg, range 27.8–66.9 h",45.0 h
same,expected increase in midazolam exposure (AUC0–∞),[3],approximately 1.69 fold
same,human plasma protein binding,[4],low
same,increase in midazolam AUC0–∞ exposures,[5]; ipatasertib at 600 mg QD,2.22 fold
same,CYP3A4 inhibition in vitro,[6],time-dependent inhibitor of CYP3A4
same,AUC,"[7]; 400 mg, Reference = ipatasertib only, n = 13, linear mixed model, read-out: AUC0–tau,ss, Reference Geometric Mean",2610 ng·h/mL
same,Cmax,"[7]; 400 mg, Reference = ipatasertib only, n = 13, linear mixed model, read-out: Cmax,ss, Reference Geometric Mean",452 ng/mL
same,Cmax,"[7]; 400 mg, ipatasertib 400 mg QD alone, Cycle 1 Day 10, n = 14, geometric mean (%CV), read-out: Cmax,ss",462 ng/mL
same,AUC,"[7]; 400 mg, ipatasertib 400 mg QD alone, Cycle 1 Day 10, n = 14, geometric mean (%CV), tau = 24 h, mCRPC patients, read-out: AUC0–tau,ss",2660 ng·h/mL
same,AUC,"[7]; Test = ipatasertib with darolutamide, n = 13, linear mixed model, read-out: AUC0–tau,ss, Test Geometric Mean",2400 ng·h/mL
same,Cmax,"[7]; Test = ipatasertib with darolutamide, n = 13, linear mixed model, read-out: Cmax,ss, Test Geometric Mean",355 ng/mL
same,AUC(0-t),"[7]; ipatasertib 400 mg QD alone, Cycle 1 Day 10, n = 14, geometric mean (%CV)",2670 ng·h/mL
same,Tmax,"[7]; ipatasertib 400 mg QD alone, Cycle 1 Day 10, n = 14, median (min, max)",1.04 h
same,AUC(0-t),"[7]; ipatasertib 400 mg QD with darolutamide 600 mg BID, Cycle 1 Day 28, n = 13, geometric mean (%CV)",2400 ng·h/mL
same,Cmax,"[7]; ipatasertib 400 mg QD with darolutamide 600 mg BID, Cycle 1 Day 28, n = 13, geometric mean (%CV), read-out: Cmax,ss",355 ng/mL
same,AUC,"[7]; ipatasertib 400 mg QD with darolutamide 600 mg BID, Cycle 1 Day 28, n = 13, geometric mean (%CV), tau = 24 h, read-out: AUC0–tau,ss",2400 ng·h/mL
same,Tmax,"[7]; ipatasertib 400 mg QD with darolutamide 600 mg BID, Cycle 1 Day 28, n = 13, median (min, max)",2 h
same,increase in exposures when combined with abiraterone,[8]; dedicated drug–drug interaction study,approximately 1.5 fold
same,decrease in ipatasertib exposure when combined with enzalutamide,"[8]; enzalutamide, strong CYP3A4 inducer",approximately 50%
same,increase in AUC0–∞ when combined with itraconazole,[8]; [12],5.45 fold
same,increase in Cmax when combined with itraconazole,[8]; [12],2.26 fold
CNC(=O)c1ccc(N2C(=S)N(c3ccc(C#N)c(C(F)(F)F)c3)C(=O)C2(C)C)cc1F [enzalutamide],reduction of midazolam exposures,"[5]; midazolam in combination with enzalutamide, strong CYP3A4 inducer",approximately 85%
"CC(=O)c1cc(C(=O)N[C@@H](C)Cn2ccc(-c3ccc(C#N)c(Cl)c3)n2)[nH]n1 [Keto-darolutamide, keto-darolutamide]","Tmax,ss",[9]; in vivo,"4.13 (1.00, 8.25) h"
same,"AUC0–12 h,ss","[10]; human, in vivo",82800 ng·h/mL
same,"AUC0–t,ss","[10]; human, in vivo",82.8 (39.5) h·µg/mL
same,"Cmax,ss","[10]; human, in vivo",9.4 (35.4) µg/mL
same,effective t1/2,"[10]; human, in vivo",approximately 20 h
CC(O)c1cc(C(=O)N[C@@H](C)Cn2ccc(-c3ccc(C#N)c(Cl)c3)n2)[nH]n1 (stereo partly drawn) [Darolutamide],reduction of midazolam exposures,[5]; concomitant administration of darolutamide and midazolam,~ 29%
same,Tmax,"[9]; male, plasma, oral",4.23 h
same,time to steady state,[10]; 600 mg BID,2 to 5 days
same,increase in bioavailability when administered with food,[10],2.0- to 2.5 fold
same,effective t1/2,[10]; in patients,approximately 20 h
same,time at which Cmax is reached,[10]; single 600 mg oral dose,approximately 4 h
same,"AUC0–t,ss",[10]; [13],52.82 (33.9) h·µg/mL
same,"Cmax,ss",[10]; [13],4.79 (30.9) µg/mL
same,"AUC0–12 h,ss",[10]; single-agent darolutamide,52820 ng·h/mL
same,increase in AUC0–∞ when combined with itraconazole,[8]; darolutamide with itraconazole,1.7 fold
same,increase in Cmax when combined with itraconazole,[8]; darolutamide with itraconazole,1.4 fold
same,penetration of the blood–brain barrier,[11],lower penetration of the blood–brain barrier
